Key:
[1] = system: parental and platinum-resistant cell lines; assay: Comet assay, DNA cross-linking, summary of FIGS. 1-9; assay type: cell-based; details: for DNA cross-linking in parental cell lines: parental (platinum-sensitive) A2780, L1210 and cor123 cell lines; for DNA cross-linking in parental cell lines / DNA cross-linking in platinum-resistant cell lines: FIGS. 1 and 2
Protocol: (§1) Preliminary studies have been carried out to investigate the mechanism underlying this increased sensitivity. These studies were carried out using the Comet assay (described in Appendix C), which measures damage to DNA. The results are shown in FIGS. 1 (cisplatinum), 2 (carboplatinum), 3 to 8 (compounds A-F) and 9 (phenylgoldtriphenylphospine, PAuP).
(§2) DNA damage was measured by the single cell gel electrophoresis (SCGE) assay or “Comet assay”, originally developed by Ostling and Johnson^8. This is a method for determining the extent of DNA damage and repair capacity within individual cells.^9-11 It has previously been shown that this technique can be used to investigate the mechanism of action of different DNA damaging agents.^12
(§3) Cells were trypsinised, suspended in 0.5 ml of ice cold fresh medium and transferred into plastic 24-well dishes prior to embedding in agarose. For the cross-linking studies treated and control samples were chilled on ice (to prevent any repair of DNA damage) and irradiated to a dose of 20 Gy in a Caesium-137 source (0.4 Gy/min). Control, (unirradiated, non-drug treated cells) were maintained on ice in the same manner as treated samples.
(§4) Glass microscope slides, frosted at one end, were pre-coated with 1% normal agarose in distilled water. These slides were allowed to air dry overnight prior to use. A 1% low melting point agarose (LMP) mixture in PBS was melted and held at 45° C. 1 ml of LMP was then added to 0.5 ml of cell suspension on ice and the resultant mixture was pipetted onto a pre-coated glass microscope slide and allowed to set for 1-2 minutes before being transferred to an ice tray. The slides were immersed in ice cold lysis solution (100 mM EDTA, 10 mM Tris-HCl, 1% Triton ×100, 1% DMSO, 2.5M NaCl) for 1 hr, and washed three times by immersion in fresh double distilled water for 15 minutes.
(§5) Slides were then placed onto a flat bed electrophoresis tank and covered (5-6 mm) with alkali unwinding solution (50 mM NaOH, 1 mM EDTA buffered to pH 12.5) and left under subdued lighting for 45 minutes to allow the DNA to unwind before being subjected to electrophoresis at 0.6V/cm for 25 minutes. Each slide was rinsed with 2×1 ml of 0.4M Tris-HCl, pH 8.0 and allowed to dry in air. The dried slides were then rehydrated for 20 minutes with double distilled water, 2×1 ml of propidium iodide solution (2.5 μg/ml) was added and staining was allowed to proceed for 15 minutes. Slides were then immersed in 1 litre of double distilled water for 1 hour to reduce excess background staining. The slides were cover slipped and then examined at 250× magnification under an epifluorescent microscope (Zeiss-Jenamed) using green light from a 50 watt mercury source with a 580 nm reflector and a 590 nm barrier filter set. Images were captured using an attached Sony HAD-1 interline CCD camera and Komet software analysis package (Kinetic Imaging). Twenty-five images from each of two duplicate slides were captured and analysed and the individual “comet moments” as defined by Olive et al^13, were calculated. The total fluorescence of the image represents the amount of DNA present and the length of the image, measured in pixels, represents the length of migration of the DNA. The head and tail areas of the image were identified and the intensity of each was determined. The tail moment is calculated by multiplying the fraction of DNA present in the tail by half the length of the tail.

L1210 cell line = assay: Growth inhibition assay (modified MTT); assay type: cell-based, murine; details: five-day MTT
Protocol: (§6) The sensitivities of the cell lines to cisplatinum, carboplatinum, and compounds A-F were determined using a growth inhibition assay which was a modified version of the MTT method (modified version of MTT method described in Appendix B).
(§7) The following is a brief description of the eleven different cell lines used in the growth inhibition assay: • The A2780 cell line (1 in FIGS. 1-9) is a human ovarian cell line which is sensitive to cisplatinum and carboplatinum. […] The cor123/cpr (7) cell line is a modified version of the cor123 cell line which has been modified to be resistant to cisplatinum and carboplatinum. • The ccu24 (8) cell line is an epithelial ovarian cancer cell line, developed at the Christie Hospital from a tumour biopsy, and the ccu24/cpr (9) cell line is a modified version of this cell line which is cisplatinum and carboplatinum resistant. • L1210 (10) is a murine leukemia cell line and L1210/M1140 (11) is its platinum drug resistant subline.
(§8) The cell toxicity studies were performed using a modification of the method MTT.^7 The principle of the assay is to assess the growth inhibitory effect of a drug at various doses over a five-day time course. This assay was performed in 96-well microtitre plates. Cells were seeded at densities of 400-1,000 cells per well, depending on the doubling time of the cell line. All cell dilutions were performed in growth medium containing 10% FCS (foetal calf serum).
(§9) Compounds under investigation were dissolved in DMSO (dimethylsulphoxide). Serial dilutions of compound were made into the cell suspension, ensuring that the proportion of DMSO remained below 0.5%. 200 μl of cells and drug mix was added to the 96-well plates in triplicate. The plates were incubated for five days at 5% CO2 and 37° C. After this time, the plates were removed from the incubator and 50 μl of a 3 mg/ml solution of MTT [3-(4,5-dimethyl-thiazol-2-yl)-2,5-diphenyl tetrazolium bromide] was added to each well and incubated in the same conditions for another 3 hours. The medium from each well was aspirated and the formazan crystals were solubilised in 200 μl of DMSO. The plates were read using a Multiskan platereader at 540 nm and 690 nm. Growth inhibition curves were constructed using mean and standard deviation of the triplicate absorbance values and from these curves the IC50 values were calculated.

L1210/M1140 cell line = assay: Growth inhibition assay (modified MTT); assay type: cell-based, murine; details: five-day MTT
Protocol: as §6, §7, §8, §9

mcp1 cell line = assay: Growth inhibition assay (modified MTT); assay type: cell-based, human; details: five-day MTT
Protocol: as §6, §7, §8, §9

ccu24/cpr cell line = assay: Growth inhibition assay (modified MTT); assay type: cell-based, human; details: five-day MTT
Protocol: as §6, §7, §8, §9

cor123 cell line = assay: Growth inhibition assay (modified MTT); assay type: cell-based, human; details: five-day MTT
Protocol: as §6, §7, §8, §9

A2780cis cell line = assay: Growth inhibition assay (modified MTT); assay type: cell-based, human; details: for IC50: A2780cis, five-day MTT
Protocol: as §6, §7, §8, §9

ccu24 cell line = assay: Growth inhibition assay (modified MTT); assay type: cell-based, human; details: five-day MTT
Protocol: as §6, §7, §8, §9

cor123/cpr cell line = assay: Growth inhibition assay (modified MTT); assay type: cell-based, human; details: five-day MTT
Protocol: as §6, §7, §8, §9

A2780-S cell line = assay: Growth inhibition assay (modified MTT); assay type: cell-based, human; details: five-day MTT
Protocol: as §6, §7, §8, §9

A2780carb cell line = assay: Growth inhibition assay (modified MTT); assay type: cell-based, human; details: for IC50: A2780carb, five-day MTT
Protocol: as §6, §7, §8, §9

mcp8 cell line = assay: Growth inhibition assay (modified MTT); assay type: cell-based, human; details: five-day MTT
Protocol: as §6, §7, §8, §9

eleven cell lines = assay: Growth inhibition assay (modified MTT), summary over cell lines; assay type: cell-based, mouse and human; details: text reference to Table 1; cell line not stated
Protocol: as §6
as §7, with “subline. […]” for “subline.”
Compounds under investigation were dissolved in DMSO (dimethylsulphoxide). […] The plates were read using a Multiskan platereader at 540 nm and 690 nm. Growth inhibition curves were constructed using mean and standard deviation of the triplicate absorbance values and from these curves the IC50 values were calculated.

A2780/mcp8 = assay: Comet assay, DNA crosslinking; assay type: cell-based, human; details: ratio >1 = more cross-linking in parental than in platinum-resistant line
Protocol: as §1
(§10) Table 3 illustrates the results of the following calculation using the DNA cross-linking results obtained in the Comet assays:
as §2, §3, §4, §5

A2780carb = assay: Comet assay, DNA crosslinking; assay type: cell-based, human; details: ratio >1 = more cross-linking in parental than in platinum-resistant line
Protocol: as §1, §10, §2, §3, §4, §5

cor123 = assay: Comet assay, DNA crosslinking; assay type: cell-based, human; details: ratio >1 = more cross-linking in parental than in platinum-resistant line
Protocol: as §1, §10, §2, §3, §4, §5

ccu24 = assay: Comet assay, DNA crosslinking; assay type: cell-based, human; details: ratio >1 = more cross-linking in parental than in platinum-resistant line
Protocol: as §1, §10, §2, §3, §4, §5

A2780mcp1 = assay: Comet assay, DNA crosslinking; assay type: cell-based, human; details: ratio >1 = more cross-linking in parental than in platinum-resistant line
Protocol: as §1, §10, §2, §3, §4, §5

A2780cis = assay: Comet assay, DNA crosslinking; assay type: cell-based, human; details: ratio >1 = more cross-linking in parental than in platinum-resistant line
Protocol: as §1, §10, §2, §3, §4, §5

L1210 = assay: Comet assay, DNA crosslinking; assay type: cell-based, murine; details: ratio >1 = more cross-linking in parental than in platinum-resistant line
Protocol: as §1, §10, §2, §3, §4, §5

[2] = Table 2, further series of assays
[3] = Table 2, further series of assays, A2780/mcp1
[4] = Table 2, further series of assays, A2780/mcp8
[5] = Table 1, first series of assays
[6] = Table 1, first series of assays, mcp1
[7] = Table 1, first series of assays, mcp8

Compound | DNA cross-linking in parental cell lines [1] | DNA cross-linking in platinum-resistant cell lines [1] | IC50 (L1210 cell line; [2]) [nM] | IC50 (L1210/M1140 cell line; [2]) [nM] | IC50 (mcp1 cell line; [3]) [nM] | IC50 (ccu24/cpr cell line; [2]) [nM] | IC50 (cor123 cell line; [2]) [nM] | IC50 (A2780cis cell line; [2]) [nM] | IC50 (ccu24 cell line; [2]) [nM] | IC50 (cor123/cpr cell line; [2]) [nM] | IC50 (A2780-S cell line; [2]) [nM] | IC50 (A2780carb cell line; [2]) [nM] | IC50 (A2780cis cell line; [5]) [nM] | IC50 (A2780-S cell line; [5]) [nM] | DNA crosslinking (Comet) ratio (A2780/mcp8) | DNA crosslinking (Comet) ratio (cor123) | DNA crosslinking (Comet) ratio (ccu24) | DNA crosslinking (Comet) ratio (A2780mcp1) | DNA crosslinking (Comet) ratio (A2780cis) | DNA crosslinking (Comet) ratio (L1210) | also measured
N.N.O=C([O-])C1(C(=O)[O-])CCC1.[Pt+2] [Carboplatin, carboplatin, reference compound] | extensive DNA cross-linking | much less cross-linking | 15300 | 47800 | 24800 | 27200 | 5350 | 34600 | 5820 | 29800 | 1590 | 32200 |  |  |  |  |  |  |  |  | IC50 (mcp8 cell line; [4]): 26800 nM
[Au+].[c-]1ccccc1.c1ccc([PH+](c2ccccc2)c2ccccc2)cc1 [PAuP, phenylgoldtriphenylphospine, reference compound] |  |  |  |  |  |  |  |  |  |  |  |  | > 10000 | > 10000 | 1.33 | 0.75 | 1.00 | 1.33 | 1.00 | 1.33 | level of cross-linking ([1]; FIG. 9, compared to the di-gold compounds): low compared to the di-gold compounds; ID50 (cytotoxicity) (eleven cell lines): > 10000 mu; DNA crosslinking (Comet) ratio (A2780carb): 1.33
c1ccc([PH]([Au][c]2cc[c]([Au][PH](c3ccccc3)(c3ccccc3)c3ccccc3)cc2)(c2ccccc2)c2ccccc2)cc1 [A, 1,4-bis-(triphenylphospinogold(I))benzene] |  |  | 41.6 | 9.2 | 3.5 | 6.4 | 22.2 | 0.5 | 28.3 | 4.5 | 16.5 | 0.9 | 0.2 | 13.4 | 0.60 | 0.56 | 0.40 | 0.59 | 0.50 | 0.69 | IC50 (L1210 cell line; [5]): 38.3 nM; IC50 (L1210/M1140 cell line; [5]): 6.4 nM; IC50 (mcp1 cell line; [6]): 0.5 nM; IC50 (ccu24/cpr cell line; [5]): 3.6 nM; IC50 (cor123 cell line; [5]): 19.3 nM; sensitivity of A2780cis relative to parental A2780-S line (A2780cis cell line; from IC50 0.2 nM vs 13.4 nM): over sixty-times more sensitive; IC50 (ccu24 cell line; [5]): 25.3 nM; IC50 (cor123/cpr cell line; [5]): 1.5 nM; IC50 (A2780carb cell line; [5]): 0.6 nM; sensitivity of A2780carb relative to parental A2780-S line (A2780carb cell line; from IC50 0.6 nM vs 13.4 nM): over twenty-times more sensitive; IC50 (mcp8 cell line; [7]): 0.6 nM; IC50 (mcp8 cell line; [4]): 4.6 nM; DNA crosslinking (Comet) ratio (A2780carb): 0.53
N.N.[Cl][Pt][Cl] [Cisplatin, cisplatin, reference compound] | extensive DNA cross-linking | much less cross-linking |  |  |  |  |  |  |  |  |  |  | 30500 | 1320 | 5.70 | 5.72 | 4.65 | 5.40 | 5.65 | 3.37 | DNA crosslinking (Comet) ratio, all resistant cell lines ([1]; summary of Table 3): a ratio greater than unity; IC50 (L1210 cell line; [5]): 12100 nM; IC50 (L1210/M1140 cell line; [5]): 44900 nM; IC50 (mcp1 cell line; [6]): 19900 nM; IC50 (ccu24/cpr cell line; [5]): 24800 nM; IC50 (cor123 cell line; [5]): 3430 nM; IC50 (ccu24 cell line; [5]): 4320 nM; IC50 (cor123/cpr cell line; [5]): 26600 nM; IC50 (A2780carb cell line; [5]): 27600 nM; IC50 (mcp8 cell line; [7]): 24400 nM

— patent US7732485B2, “Treatment of cancer” (The University of Manchester, priority 2003, dated 2010)
